Test results as given in PMC10156173, “GUN4 appeared early in cyanobacterial evolution” (PNAS Nexus, 2023).

Columns and labels:
[1] = biological target: T1, CrGUN4 (Chlamydomonas GUN4) (Chlamydomonas reinhardtii, UniProt A8I5N5, N219G); experiment: absorption spectrum of purified protein co-expressed with PCB biosynthesis in E. coli; settings: TKKG buffer (25 mM TES-KOH pH 7.8, 100 mM KCl, 10% glycerol); no PCB binding detected
T1 construct: gene CHLRE_05g246800v5; in-frame His-tagged fusion in pET28a; expressed in E. coli C41 with pKT271 (PCB biosynthesis); Ni-NTA purified

[2] = biological target: T2, CrGUN4 (Chlamydomonas GUN4) (Chlamydomonas reinhardtii, UniProt A8I5N5); experiment: as above; assay type: binding; settings: TKKG buffer (25 mM TES-KOH pH 7.8, 100 mM KCl, 10% glycerol); peaks at 368 and 674 nm
T2 construct: gene CHLRE_05g246800v5; in-frame His-tagged fusion in pET28a; expressed in E. coli C41 with pKT271 (PCB biosynthesis); Ni-NTA purified
T2 sequence (A8I5N5 entry or part of it): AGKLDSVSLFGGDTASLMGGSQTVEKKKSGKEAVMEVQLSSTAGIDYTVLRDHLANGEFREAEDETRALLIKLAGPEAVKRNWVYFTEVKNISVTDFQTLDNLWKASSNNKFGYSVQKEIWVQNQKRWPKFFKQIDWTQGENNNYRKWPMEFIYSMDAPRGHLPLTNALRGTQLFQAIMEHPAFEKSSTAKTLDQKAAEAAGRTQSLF

T1 sequence (A8I5N5 entry or part of it N219G): as the sequence (A8I5N5 entry or part of it) above, with N167G counted along it

Structure (SMILES): CC=C1C(=CC2=NC(=Cc3[nH]c(C=C4NC(=O)C(CC)=C4C)c(C)c3CCC(=O)O)C(CCC(=O)O)=C2C)NC(=O)[C@@H]1C [PCB]
- bilin absorbance peaks (368 and 674 nm) [1]: these peaks are absent in the N219G variant
- absorption spectrum of purified protein co-expressed with PCB biosynthesis in E. [2]: Wild-type CrGUN4 contains a small amount of bilin as shown by characteristic peaks
